Laboratory results: ChEMBL document CHEMBL4339202, “Benzothiophene derivatives as phosphodiesterase 10A (PDE10A) inhibitors: Hit-to-lead studies” (Bioorg Med Chem Lett, 2019)
Each block holds one compound with its values, some of them ahead of it.

How the values were obtained:
[1] = molecular target: cAMP and cAMP-inhibited cGMP 3',5'-cyclic phosphodiesterase 10A (Homo sapiens, UniProt Q9Y233); experiment: Inhibition of human MOLT4 cell-derived PDE10A using [3H]cAMP as substrate measured after 2 hrs in presence of rolipram/milrinone by topcount method
Sequence of cAMP and cAMP-inhibited cGMP 3',5'-cyclic phosphodiesterase 10A (Q9Y233 whole entry): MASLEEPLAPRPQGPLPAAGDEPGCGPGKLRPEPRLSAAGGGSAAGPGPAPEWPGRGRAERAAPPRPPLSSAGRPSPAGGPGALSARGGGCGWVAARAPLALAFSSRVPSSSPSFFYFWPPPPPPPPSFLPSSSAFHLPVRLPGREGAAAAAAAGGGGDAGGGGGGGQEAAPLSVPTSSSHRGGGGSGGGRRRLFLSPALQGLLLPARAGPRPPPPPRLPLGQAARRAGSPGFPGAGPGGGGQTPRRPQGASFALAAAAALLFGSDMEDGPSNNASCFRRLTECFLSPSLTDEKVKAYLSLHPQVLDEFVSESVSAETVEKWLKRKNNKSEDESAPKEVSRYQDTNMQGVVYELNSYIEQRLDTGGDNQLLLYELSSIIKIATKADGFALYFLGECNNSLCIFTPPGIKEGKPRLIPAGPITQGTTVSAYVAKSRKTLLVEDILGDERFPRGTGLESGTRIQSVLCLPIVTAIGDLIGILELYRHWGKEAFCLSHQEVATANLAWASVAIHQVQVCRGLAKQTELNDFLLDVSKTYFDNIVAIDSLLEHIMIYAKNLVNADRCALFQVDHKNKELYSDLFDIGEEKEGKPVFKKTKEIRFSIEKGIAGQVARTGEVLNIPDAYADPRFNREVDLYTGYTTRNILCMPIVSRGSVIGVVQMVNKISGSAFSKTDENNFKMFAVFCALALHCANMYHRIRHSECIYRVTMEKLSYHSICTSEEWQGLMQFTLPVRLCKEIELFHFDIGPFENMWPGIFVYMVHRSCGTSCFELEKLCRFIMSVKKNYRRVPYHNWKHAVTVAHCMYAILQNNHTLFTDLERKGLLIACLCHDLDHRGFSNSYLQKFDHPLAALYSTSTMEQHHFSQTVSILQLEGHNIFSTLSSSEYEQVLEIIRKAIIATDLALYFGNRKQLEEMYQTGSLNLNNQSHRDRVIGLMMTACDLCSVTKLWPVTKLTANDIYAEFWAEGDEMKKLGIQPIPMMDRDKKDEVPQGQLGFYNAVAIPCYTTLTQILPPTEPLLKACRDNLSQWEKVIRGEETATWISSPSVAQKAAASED

[2] = species on record: Mus musculus; experiment: Inhibition of Balb/c mouse liver PDE4 at 30 ug/ml using [3H]cAMP as substrate measured after 2 hrs by topcount method relative to control
[3] = molecular target: T1, Phosphodiesterase 7 (Homo sapiens, UniProt Q13946+Q9NP56); experiment: Inhibition of human MOLT4 cell-derived PDE7 at 30 ug/ml using [3H]cAMP as substrate measured after 2 hrs in presence of rolipram/milrinone by topcount method relative to control; format: protein assay
T1 sequence (Q13946 whole entry, looked up): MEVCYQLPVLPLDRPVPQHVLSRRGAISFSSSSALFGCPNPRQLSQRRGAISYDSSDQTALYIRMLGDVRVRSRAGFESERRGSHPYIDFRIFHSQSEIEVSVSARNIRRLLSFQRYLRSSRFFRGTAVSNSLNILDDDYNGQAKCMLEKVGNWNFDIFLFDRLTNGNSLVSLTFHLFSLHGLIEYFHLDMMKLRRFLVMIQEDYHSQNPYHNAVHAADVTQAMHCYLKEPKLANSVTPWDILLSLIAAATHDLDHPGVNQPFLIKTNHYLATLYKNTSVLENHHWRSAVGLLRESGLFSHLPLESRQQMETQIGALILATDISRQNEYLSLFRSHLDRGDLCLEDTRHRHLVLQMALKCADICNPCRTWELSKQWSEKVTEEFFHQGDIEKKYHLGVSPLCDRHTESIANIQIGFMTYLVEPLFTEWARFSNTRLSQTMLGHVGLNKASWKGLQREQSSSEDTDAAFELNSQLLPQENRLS
T1 sequence (Q9NP56 whole entry, looked up): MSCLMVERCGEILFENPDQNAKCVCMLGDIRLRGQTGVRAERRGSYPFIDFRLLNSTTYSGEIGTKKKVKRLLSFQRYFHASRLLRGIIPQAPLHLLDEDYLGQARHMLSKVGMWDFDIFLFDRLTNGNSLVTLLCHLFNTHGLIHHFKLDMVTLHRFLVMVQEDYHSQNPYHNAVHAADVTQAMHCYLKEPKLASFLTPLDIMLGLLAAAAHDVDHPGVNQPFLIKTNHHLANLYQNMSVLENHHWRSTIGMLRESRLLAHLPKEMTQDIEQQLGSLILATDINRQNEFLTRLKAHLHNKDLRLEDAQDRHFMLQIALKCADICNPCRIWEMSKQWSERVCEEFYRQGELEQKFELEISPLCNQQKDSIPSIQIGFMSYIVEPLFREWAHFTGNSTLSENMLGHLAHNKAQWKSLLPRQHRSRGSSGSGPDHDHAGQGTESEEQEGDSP

[4] = species on record: Mus musculus; experiment: Inhibition of Balb/c mouse liver PDE1 at 30 ug/ml using [3H]cAMP as substrate measured after 2 hrs in presence of calmodulin by topcount method relative to control
[5] = species on record: Mus musculus; experiment: Inhibition of Balb/c mouse lung PDE5 at 30 ug/ml using [3H]cGMP as substrate measured after 2 hrs by topcount method relative to control
[6] = species on record: Mus musculus; experiment: Inhibition of Balb/c mouse liver PDE2 at 30 ug/ml using [3H]cAMP as substrate measured after 2 hrs in presence of cGMP by topcount method relative to control
[7] = molecular target: hERG (KCNH2) (Homo sapiens, UniProt Q12809); experiment: Inhibition of human ERG at 10 uM relative to control
Sequence of hERG (KCNH2) (Q12809 whole entry): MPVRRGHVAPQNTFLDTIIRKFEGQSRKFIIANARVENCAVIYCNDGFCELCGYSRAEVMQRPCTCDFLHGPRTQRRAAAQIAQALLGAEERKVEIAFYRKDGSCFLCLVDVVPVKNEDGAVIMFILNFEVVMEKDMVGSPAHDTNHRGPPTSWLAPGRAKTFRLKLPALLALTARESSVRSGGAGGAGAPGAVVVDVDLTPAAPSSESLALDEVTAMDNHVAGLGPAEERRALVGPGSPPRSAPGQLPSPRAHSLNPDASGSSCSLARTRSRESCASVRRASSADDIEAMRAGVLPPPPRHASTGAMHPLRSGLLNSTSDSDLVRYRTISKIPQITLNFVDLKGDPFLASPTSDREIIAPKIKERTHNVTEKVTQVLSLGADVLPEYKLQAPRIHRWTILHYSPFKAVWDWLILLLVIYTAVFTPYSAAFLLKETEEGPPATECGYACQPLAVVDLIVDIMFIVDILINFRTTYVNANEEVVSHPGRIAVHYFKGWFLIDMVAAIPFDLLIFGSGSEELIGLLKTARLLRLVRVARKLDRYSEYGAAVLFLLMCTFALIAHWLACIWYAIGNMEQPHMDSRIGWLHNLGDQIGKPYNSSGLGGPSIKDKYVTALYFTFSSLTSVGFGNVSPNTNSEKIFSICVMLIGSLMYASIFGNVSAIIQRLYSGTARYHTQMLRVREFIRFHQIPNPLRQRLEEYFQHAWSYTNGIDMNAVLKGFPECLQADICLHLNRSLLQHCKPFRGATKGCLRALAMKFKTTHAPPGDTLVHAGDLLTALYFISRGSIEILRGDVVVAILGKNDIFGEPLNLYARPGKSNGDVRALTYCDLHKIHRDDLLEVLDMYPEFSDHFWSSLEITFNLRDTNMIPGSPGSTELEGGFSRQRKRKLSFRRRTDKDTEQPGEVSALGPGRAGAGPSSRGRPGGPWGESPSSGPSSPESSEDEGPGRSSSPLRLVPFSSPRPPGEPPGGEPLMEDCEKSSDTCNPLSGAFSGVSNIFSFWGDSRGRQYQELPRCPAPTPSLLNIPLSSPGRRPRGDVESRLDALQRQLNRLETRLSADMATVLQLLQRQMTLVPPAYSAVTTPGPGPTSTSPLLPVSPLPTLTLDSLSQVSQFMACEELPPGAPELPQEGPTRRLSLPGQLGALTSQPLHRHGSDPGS

[8] = molecular target: CYP3A4 (Homo sapiens, UniProt P08684); experiment: Inhibition of CYP3A4 (unknown origin) at 10 uM relative to control; format: ADME
Sequence of CYP3A4 (P08684 whole entry): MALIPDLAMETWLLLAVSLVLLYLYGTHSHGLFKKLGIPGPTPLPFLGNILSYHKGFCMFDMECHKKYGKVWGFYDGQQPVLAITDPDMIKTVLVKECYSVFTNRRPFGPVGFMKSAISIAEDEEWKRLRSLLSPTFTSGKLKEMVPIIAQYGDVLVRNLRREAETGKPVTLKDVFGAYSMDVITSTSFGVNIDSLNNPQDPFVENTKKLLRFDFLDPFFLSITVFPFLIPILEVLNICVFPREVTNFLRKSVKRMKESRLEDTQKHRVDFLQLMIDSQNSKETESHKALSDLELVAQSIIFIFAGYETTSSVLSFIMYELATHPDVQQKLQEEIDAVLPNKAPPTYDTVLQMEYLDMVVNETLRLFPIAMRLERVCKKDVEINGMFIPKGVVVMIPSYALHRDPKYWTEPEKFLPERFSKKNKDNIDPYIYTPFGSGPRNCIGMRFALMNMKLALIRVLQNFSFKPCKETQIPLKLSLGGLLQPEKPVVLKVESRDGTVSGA

[9] = molecular target: CYP2D6 (Homo sapiens, UniProt P10635); experiment: Inhibition of CYP2D6 (unknown origin) at 10 uM relative to control; format: ADME
Sequence of CYP2D6 (P10635 whole entry): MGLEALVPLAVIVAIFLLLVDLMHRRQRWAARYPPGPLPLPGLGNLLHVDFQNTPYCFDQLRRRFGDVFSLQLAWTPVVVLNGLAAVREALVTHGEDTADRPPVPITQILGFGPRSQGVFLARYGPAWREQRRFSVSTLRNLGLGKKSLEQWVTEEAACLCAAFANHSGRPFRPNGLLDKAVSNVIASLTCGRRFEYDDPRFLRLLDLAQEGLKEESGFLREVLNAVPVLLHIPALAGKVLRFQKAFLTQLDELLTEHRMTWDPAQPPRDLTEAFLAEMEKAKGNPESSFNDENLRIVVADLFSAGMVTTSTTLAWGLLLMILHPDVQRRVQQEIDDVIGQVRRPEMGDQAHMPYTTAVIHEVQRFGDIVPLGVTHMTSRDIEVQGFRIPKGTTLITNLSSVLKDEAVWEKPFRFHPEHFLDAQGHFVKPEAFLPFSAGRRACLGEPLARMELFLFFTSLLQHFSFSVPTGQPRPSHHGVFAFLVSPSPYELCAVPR

[10] = Selectivity ratio of IC50 for Balb/c mouse liver PDE1 to IC50 for human MOLT4 cell-derived PDE10A
[11] = Selectivity ratio of IC50 for Balb/c mouse liver PDE2 to IC50 for human MOLT4 cell-derived PDE10A
[12] = Inhibition of Balb/c mouse lung PDE5 using [3H]cGMP as substrate measured after 2 hrs by topcount method
[13] = Selectivity ratio of IC50 for Balb/c mouse lung PDE5 to IC50 for human MOLT4 cell-derived PDE10A
[14] = Selectivity ratio of IC50 for Balb/c mouse liver PDE4 to IC50 for human MOLT4 cell-derived PDE10A
[15] = species on record: Homo sapiens; experiment: Selectivity ratio of IC50 for human MOLT4 cell-derived PDE7 to IC50 for human MOLT4 cell-derived PDE10A
[16] = molecular target: T1, Phosphodiesterase 7; experiment: Inhibition of human MOLT4 cell-derived PDE7 using [3H]cAMP as substrate measured after 2 hrs in presence of rolipram/milrinone by topcount method; format: protein assay
[17] = Inhibition of Balb/c mouse liver PDE2 using [3H]cAMP as substrate measured after 2 hrs in presence of cGMP by topcount method
[18] = Inhibition of Balb/c mouse liver PDE1 using [3H]cAMP as substrate measured after 2 hrs in presence of calmodulin by topcount method
[19] = Inhibition of Balb/c mouse liver PDE4 using [3H]cAMP as substrate measured after 2 hrs by topcount method

- IC50 [1]: 320 nM
SMILES: Cc1c(C(=O)Nc2ccc3ccccc3n2)sc2c(-c3ccoc3)cccc12

- IC50 [1]: 200 nM
SMILES: Cc1c(C(=O)Nc2ccc3ccccc3n2)sc2c(I)cccc12

- inhibition at 10 µM [8]: 1%
- inhibition at 10 µM [9]: 45%
- IC50 [1]: 4.7 nM
SMILES: Cc1c(C(=O)Nc2ccc3ccccc3n2)sc2c(-c3ccncc3)cccc12
- inhibition at 10 µM [7]: 36%

- IC50 [1]: 5.2 nM
SMILES: CCc1c(C(=O)Nc2ccc3ccccc3n2)sc2c(-c3ccncc3)cccc12

- IC50 [1]: 110 nM
SMILES: Cc1c(C(=O)Nc2ccc3ccccc3n2)sc2c(C#N)cccc12

- IC50 [1]: 120 nM
SMILES: Cc1c(C(=O)Nc2ccc3ccccc3n2)sc2c(-c3cccnc3)cccc12

- IC50 [1]: 62 nM
SMILES: Cc1c(C(=O)Nc2ccc3ccccc3n2)sc2c(-c3ccccn3)cccc12

The remaining lines, values behind:

SMILES: O=C(Nc1ccc2ccccc2n1)/C(=C/c1ccccc1)c1ccccc1
- inhibition [2]: < 25%
- inhibition [3]: < 25%
- inhibition [4]: < 25%
- inhibition [5]: < 25%
- inhibition [6]: < 25%
- IC50 [1]: 440 nM

SMILES: Cc1c(C(=O)Nc2ccc3ccccc3n2)sc2c(C(=O)N(C)C)cccc12
- IC50 [1]: 44 nM

SMILES: Cc1c(C(=O)Nc2ccc3ccccc3n2)sc2c(C(N)=O)cccc12
- IC50 [1]: 23 nM

SMILES: CNC(=O)c1cccc2c(C)c(C(=O)Nc3ccc4ccccc4n3)sc12
- IC50 [1]: 23 nM

SMILES: O=C(Nc1ccc2ccccc2n1)c1cc2cccc(-c3ccncc3)c2s1
- IC50 [1]: 47 nM

SMILES: CC(=O)c1cccc2c(C)c(C(=O)Nc3ccc4ccccc4n3)sc12
- Ratio IC50 [10]: > 1300
- Ratio IC50 [11]: > 1300
- IC50 [12]: > 10000 nM
- Ratio IC50 [13]: > 1300
- Ratio IC50 [14]: > 1300
- inhibition at 10 µM [7]: 10%
- Ratio IC50 [15]: > 1300
- IC50 [16]: > 10000 nM
- IC50 [17]: > 10000 nM
- inhibition at 10 µM [8]: 0%
- IC50 [18]: > 10000 nM
- inhibition at 10 µM [9]: 0%
- IC50 [19]: > 10000 nM
- IC50 [1]: 7.6 nM

SMILES: O=C(Nc1cc2cccccc-2n1)/C(=C/c1ccccc1)c1ccccc1
- inhibition [2]: 25 to 50%
- inhibition [3]: < 25%
- inhibition [4]: 25 to 50%
- inhibition [5]: 25 to 50%
- inhibition [6]: 25 to 50%
- IC50 [1]: 510 nM

SMILES: CC(=O)c1ccc(C(C)=O)c2sc(C(=O)Nc3cc(C(C)(C)O)c4ccccc4n3)cc12
- IC50 [1]: 13 nM
